In US6737424B2 (Zeneca Ltd., priority 1995, dated 2004):
Like-named read-outs stand apart in the source and are kept apart here.

How the values were obtained:
[1] = tested on: NMDA-induced excitatory response of red nucleus cells; test: Red nucleus test (Test B); format: in vivo, rat; conditions: anesthetized rats
Protocol: The purpose of this test is to determine the effects of intravenously administered glycine antagonists on the NMDA-induced excitatory response of red nucleus cells.
The procedure for the red nucleus test is as follows. Rats are anesthetized with chloral hydrate (400 mg/kg ip) and the femoral vein is catheterized for iv drug administration. Five-barrel micropipettes are stereotaxically positioned in the red nucleus. Typically, three to four of the five barrels are filled as follows: the recording barrel with 2M potassium citrate, the current balancing barrel with 4M NaCl, the drug barrel with 25 mM NMDA, and another drug barrel with 2.5 mM quisqualic acid (QA is only used in selectivity studies). NMDA is iontophoretically applied with an ejection current that is adjusted depending on the sensitivity of each individual red nucleus cell. The NMDA is cycled on and off (usually 30-60 sec. on and 60-120 sec. off) and the firing rate of the cell during each period is recorded. Once the baseline firing rate of the cell has been established, the test drug is administered iv. The effect of the drug on the NMDA-induced excitatory response of the red nucleus cell can be both qualitatively and quantitatively evaluated from the recordings and the raw data accumulated.

[2] = target: T1, glycine receptor of the NMDA receptor complex (Rattus norvegicus, UniProt P35439); test: [3H]-glycine binding assay (Test A)
T1 construct: Freshly dissected cortices and hippocampi are homogenized in 0.32 M sucrose; from tissue; host or cells: rat cortex and hippocampus synaptic membranes
Source text: The actions of compounds according to the invention as antagonists at the glycine receptor of the NMDA receptor complex can be shown by one or more standard tests such as the [^3H]-glycine binding assay (Test A) and by in vivo tests such as the red nucleus test (Test B) and the Rat Middle Cerebral Artery test (Test C). These tests confirm that compounds of the invention function as NMDA receptor antagonists in vitro and in vivo. Certain compounds of the invention are potent NMDA receptor antagonists.
In the [^3H]-glycine binding assay, neuronal synaptic membranes are prepared from adult (about 250 g) male Sprague-Dawley rats. Freshly dissected cortices and hippocampi are homogenized in 0.32 M sucrose (110 mg/mL). Synaptosomes are isolated by centrifugation (1000×g, 10 min), the supernatant is pelleted (20,000×g, 20 min) and resuspended in double-distilled water. The suspension was centrifuged for 20 minutes at 8,000×g. The resulting supernatant and buffy coat are washed twice (48,000×g, 10 min) and resuspended in double-deionized water. The final pellet is quickly frozen (dry ice/ethanol bath) under double-deionized water and stored at −70° C.
On the day of the experiment, thawed synaptic membranes are homogenized with a Brinkmann Polytron (Brinkmann Instruments, Westbury, N.Y.) tissue homogenizer in 50 millimolar tris(hydroxymethyl)aminomethane citrate, pH 7.1. The membranes are incubated with 0.04% Sufact-AMPS X100 (Pierce, Rockford, Ill.) in buffer for 20 minutes at 37° C. and washed six times by centrifugation (48,000×g, 10 min) and resuspended in buffer. The final pellet is homogenized at 200 mg wet weight/mL of the buffer for the binding assay.
For [^3H]-glycine binding at the N-methyl-D-aspartate receptor, 20 nanomolar [^3H]-glycine (40-60 Ci/mmol, New England Nuclear, Boston, Mass.) is incubated with the membranes suspended in 50 millimolar tris(hydroxymethyl)aminomethane citrate, pH 7.1 for 30 minutes at 4° C. Glycine, 1 millimolar, is used to define the nonspecific binding. Bound [^3H]-glycine is isolated from free using a Brandel (Biomedical Research and Development Laboratories, Gaithersburg, Md.) cell harvester for vacuum filtration over glass fiber filters (Whatman GF/B from Brandel, Gaithersburg, Md.) presoaked in 0.025% polyethylenimine. The samples retained on the glass fiber filters are rinsed 3 times with a total of 2.5 mL ice cold buffer. Radioactivity is estimated by liquid scintillation counting. IC50 values are obtained from a least-squares regression of a logit-log transformation of the data.

[3] = tested on: permanent middle cerebral artery (MCA) occlusion, focal ischemia; test: Rat Middle Cerebral Artery test (Test C); format: in vivo; conditions: I.V. dose of 20 mgs/kg/hr, SHR rats, 24 hours after MCA/common carotid artery occlusion
Protocol: Male SHR rats weighing 280-320 g are used for these studies. The method used for permanent middle cerebral artery (MCA) occlusion is as described by Brint et al (1988). […] Following occlusions, drugs are administered intravenously via jugular catheter. Twenty-four hours after MCA/common carotid artery occlusion, the animals are sacrificed and their brains quickly removed. Coronal sections of 1 mm thickness are cut using a vibratome and stained with 2,3,5-triphenyl-2H-tetrazolium chloride (TTC) dye. Following staining, necrotic tissue is readily distinguished from the intact brain and the area of infarcted cortex can be traced on an image analyzer. The infarct volume for each section is quantified with an image analyzer, and the total infarct volume is calculated with a program that summed all interval volume. See S. Brint et al. J. Cerebral Blood Flow 8:474-485 (1988). The statistical analysis of the difference between the volume of ischemic damage in the vehicle control and drug-treated animals is analyzed by Student's t-test. […] For example, the compound of example 4 at an I.V. dose of 20 mgs/kg/hr caused an infarct % volume change of −22%.

| Structure (SMILES) | melting point [°C] | IC50 [2] [nM] | also measured |
| --- | --- | --- | --- |
| CC(Cc1ccccc1)n1nc(O)c2[nH]c3cc(Cl)ccc3c(=O)c2c1=O (stereo not drawn) (hydrate or solvate) [Example 5, 7-chloro-4-hydroxy-2-(1-methyl-2-phenylethyl)-1,2,5,10-tetrahydropyridazino[4,5-b]quinoline-1,10-dione] | 241 to 244 |  |  |
| C/C(=C\C(N)C(=O)O)CP(=O)(O)O (stereo not drawn) [CGP 37849] |  |  | ID50, red nucleus test ([1]; reference agents, intravenous): 1.7 mg/kg iv |
| CC(C(=O)Nc1ccccc1)n1nc(O)c2[nH]c3cc(Cl)ccc3c(=O)c2c1=O (stereo not drawn) [Example 1, 7-chloro-4-hydroxy-2-[1-(phenylcarbamoyl)ethyl]-1,2,5,10-tetrahydropyridazino[4,5-b]quinoline-1,10-dione] | > 250 | 240 |  |
| O=c1c2ccc(Cl)cc2[nH]c2c(O)nn(C3CCCCC3)c(=O)c12 [Example 2, 7-chloro-4-hydroxy-2-cyclohexyl-1,2,5,10-tetrahydropyridazino[4,5-b]quinoline-1,10-dione] | > 100 |  | IC50 ([2]; rat cortex/hippocampus synaptic membranes, 20 nanomolar [3H]-glycine, 30 minutes at 4° C., pH 7.1, read-out: IC50, [3H]-glycine binding): 120 nM |
| CC(c1ccccc1)n1nc(O)c2[nH]c3cc(Cl)ccc3c(=O)c2c1=O (stereo not drawn) [Example 3] |  | 370 |  |
| CCCC(C)n1nc(O)c2[nH]c3cc(Cl)ccc3c(=O)c2c1=O (stereo not drawn) [Example 4, 7-chloro-4-hydroxy-2-(1-methylbutyl)-1,2,5,10-tetrahydropyridazino[4,5-b]quinoline-1,10-dione] | 237 to 239 | 240 | ID50, red nucleus test ([1]; as the meglumine salt (N=3), iv): 3.77 mg/kg; infarct % volume change [3]: −22% |
| CC(Cc1ccccc1)n1nc(O)c2[nH]c3cc(Cl)ccc3c(=O)c2c1=O (stereo not drawn) [Example 5, 7-chloro-4-hydroxy-2-(1-methyl-2-phenylethyl)-1,2,5,10-tetrahydropyridazino[4,5-b]quinoline-1,10-dione] |  | 300 |  |
| CC(C)CC(C)n1nc(O)c2[nH]c3cc(Cl)ccc3c(=O)c2c1=O (stereo not drawn) [Example 6, 7-chloro-4-hydroxy-2-(1,3-dimethylbutyl)-1,2,5,10-tetrahydropyridazino[4,5-b]quinoline-1,10-dione] | 238 to 240 | 290 |  |
| NC1CCN(O)C1=O (stereo not drawn) [HA-966] |  |  | ID50, red nucleus test ([1]; reference agents, intravenous): 7.9 mg/kg iv |

Second part, led by results:

| melting point [°C] | IC50 [2] [nM] | Structure (SMILES) | also measured |
| --- | --- | --- | --- |
| 262 to 264 |  | COC(=O)[C@@H](C)n1nc(O)c2[nH]c3cc(Cl)ccc3c(=O)c2c1=O (hydrate or solvate) [Example 7, 7-chloro-4-hydroxy-2-[(R)-1-(methyloxycarbonyl)-ethyl]-1,2,5,10-tetrahydropyridazino[4,5-b]quinoline-1,10-dione] |  |
| 242 to 244 |  | COC(=O)C1(Cn2nc(O)c3[nH]c4cc(Cl)ccc4c(=O)c3c2=O)C=CC=CC1 (stereo not drawn) (hydrate or solvate) [Example 8, 7-chloro-4-hydroxy-2-[1-(methyloxycarbonyl)-benzyl]-1,2,5,10-tetrahydropyridazino[4,5-b]quinoline-1,10-dione] |  |
| 237 to 238 |  | O=c1c2ccc(Cl)cc2[nH]c2c(O)nn(CC3(C(F)(F)F)C=CC=CC3)c(=O)c12 (stereo not drawn) (hydrate or solvate) [Example 12, 7-chloro-4-hydroxy-2-(1-trifluoromethylbenzyl)-1,2,5,10-tetrahydropyridazino[4,5-b]quinoline-1,10-dione] |  |
| > 250 |  | CC(CC(=O)Nc1ccccc1)n1nc(O)c2[nH]c3cc(Cl)ccc3c(=O)c2c1=O (stereo not drawn) [Example 10, 7-chloro-4-hydroxy-2-[1-methyl-2-(N-phenylcarbamoyl)ethyl]-1,2,5,10-tetrahydropyridazino[4,5-b]quinoline-1,10-dione] |  |
| 218 to 219 |  | CC(CC(=O)N(C)c1ccccc1)n1nc(O)c2[nH]c3cc(Cl)ccc3c(=O)c2c1=O (stereo not drawn) [Example 11, 7-chloro-4-hydroxy-2-[1-methyl-2-(N-phenyl-N-methylcarbamoyl)ethyl]-1,2,5,10-tetrahydropyridazino[4,5-b]quinoline-1,10-dione] |  |
| > 275 |  | C[C@H](C(=O)O)n1nc(O)c2[nH]c3cc(Cl)ccc3c(=O)c2c1=O [Example 13, 7-chloro-4-hydroxy-2-[(R)-1-carboxyethyl]-1,2,5,10-tetrahydropyridazino[4,5-b]quinoline-1,10-dione] |  |
